According to patent publication US11731961B2, “Phenyl propionic acid derivatives and uses thereof” (ILDONG PHARMACEUTICAL CO., LTD., priority 2016, dated 2023):

Biological target: T1, GPR40 (Homo sapiens, UniProt O14842)
T1 construct: expressed in transfected cells
Experiment: Cell-Based Aequorin Assay (agonistic activity)
Details: 1 μM test compound; percentage of the activity of the reference agonist at its EC100 concentration
Protocol: <In Vitro Assay 1> Cell-Based Aequorin Assay
Recombinant cells grown 18 h prior to the test in media without antibiotics were detached by gentle flushing with PBS-EDTA (5 mM EDTA), recovered by centrifugation and resuspended in “assay buffer” (DMEM/HAM's F12 with HEPES+0.1% BSA fatty-acid free). Cells were incubated at room temperature for at least 4 h with Coelenterazine (Molecular Probes). Dose response curves with the reference compounds were performed before testing the compounds.
For agonistic activity testing, 50 μL of cell suspension was injected on 96-well plates with plated 50 μL of test compounds or reference agonist. The resulting emission of light was recorded using the Hamamatsu Functional Drug Screening System 6000 (FDSS 6000).
To standardize the emission of recorded light (determination of the “100% signal”) across plates and across different experiments, some of the wells contained the reference agonist at its EC100 obtained during the test validation. Agonistic activities of test compounds were expressed as a percentage of the activity of the reference agonist at its EC100 concentration.

T1 sequence (O14842 whole entry): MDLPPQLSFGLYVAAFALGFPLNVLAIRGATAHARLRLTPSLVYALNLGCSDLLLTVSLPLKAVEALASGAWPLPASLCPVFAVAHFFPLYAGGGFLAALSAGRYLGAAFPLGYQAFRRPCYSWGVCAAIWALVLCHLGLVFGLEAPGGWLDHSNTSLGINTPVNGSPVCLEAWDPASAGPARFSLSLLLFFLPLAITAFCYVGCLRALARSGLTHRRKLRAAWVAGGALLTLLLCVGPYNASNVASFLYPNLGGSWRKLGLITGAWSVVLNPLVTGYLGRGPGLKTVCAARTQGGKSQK

Agonistic activity (%, 1 μM) | Compound
++ (++: 40-70) | CC#C[C@@H](CC(=O)O)c1ccc(O[C@@H]2CCc3c(-c4cnc(O[C@@H]5CCOC5)cc4C)ccc(F)c32)cc1 [Example 8, (S)-3-(4-(((R)-7-Fluoro-4-(4-methyl-6-(((R)-tetrahydrofuran-3-yl)oxy)pyridin-3-yl)-2,3-dihydro-1H-inden-1-yl)oxy)phenyl)hex-4-ynoic acid]
++ (++: 40-70) | CC#C[C@@H](CC(=O)O)c1ccc(O[C@@H]2CCc3c(-c4cncc(O[C@@H]5CCOC5)c4)ccc(F)c32)cc1 [Example 15, (S)-3-(4-(((R)-7-Fluoro-4-(5-(((R)-tetrahydrofuran-3-yl)oxy)pyridin-3-yl)-2,3-dihydro-1H-inden-1-yl)oxy)phenyl)hex-4-ynoic acid]
++ (++: 40-70) | CC#C[C@@H](CC(=O)O)c1ccc(O[C@@H]2CCc3c(-c4cncc(OC5CCOCC5)c4)ccc(F)c32)cc1 [Example 16, (S)-3-(4-(((R)-7-Fluoro-4-(5-((tetrahydro-2H-pyran-4-yl)oxy)pyridin-3-yl)-2,3-dihydro-1H-inden-1-yl)oxy)phenyl)hex-4-ynoic acid]
+++ (+++: over 70) | CC#C[C@@H](CC(=O)O)c1ccc(O[C@@H]2CCc3c(-c4cnc(OC5CCOCC5)c(Cl)c4)ccc(F)c32)cc1 [Example 17, (S)-3-(4-(((R)-4-(5-Chloro-6-((tetrahydro-2H-pyran-4-yl)oxy)pyridin-3-yl)-7-fluoro-2,3-dihydro-1H-inden-1-yl)oxy)phenyl)hex-4-ynoic acid]
+++ (+++: over 70) | CC#C[C@@H](CC(=O)O)c1ccc(O[C@@H]2CCc3c(-c4cnc(O[C@@H]5CCOC5)c(C#N)c4)ccc(F)c32)cc1 [Example 18, (S)-3-(4-(((R)-4-(5-Cyano-6-(((R)-tetrahydrofuran-3-yl)oxy)pyridin-3-yl)-7-fluoro-2,3-dihydro-1H-inden-1-yl)oxy)phenyl)hex-4-ynoic acid]
+++ (+++: over 70) | CC#C[C@@H](CC(=O)O)c1ccc(O[C@@H]2CCc3c(-c4cnc(OC5CCOCC5)c(C#N)c4)ccc(F)c32)cc1 [Example 19, (S)-3-(4-(((R)-4-(5-Cyano-6-((tetrahydro-2H-pyran-4-yl)oxy)pyridin-3-yl)-7-fluoro-2,3-dihydro-1H-inden-1-yl)oxy)phenyl)hex-4-ynoic acid]
+++ (+++: over 70) | CC#C[C@@H](CC(=O)O)c1ccc(O[C@@H]2CCc3c2ccc(C#N)c3-c2ccc(O[C@@H]3CCOC3)nc2)cc1 [Example 20, (S)-3-(4-(((R)-5-Cyano-4-(6-(((R)-tetrahydrofuran-3-yl)oxy)pyridin-3-yl)-2,3-dihydro-1H-inden-1-yl)oxy)phenyl)hex-4-ynoic acid]
+++ (+++: over 70) | CC#C[C@@H](CC(=O)O)c1ccc(O[C@@H]2CCc3c2ccc(F)c3-c2ccc(O[C@@H]3CCOC3)nc2)cc1 [Example 21, (S)-3-(4-(((R)-5-Fluoro-4-(6-(((R)-tetrahydrofuran-3-yl)oxy)pyridin-3-yl)-2,3-dihydro-1H-inden-1-yl)oxy)phenyl)hex-4-ynoic acid]
+++ (+++: over 70) | CC#C[C@@H](CC(=O)O)c1ccc(O[C@@H]2CCc3c2ccc(F)c3-c2ccc(OC3CCOCC3)nc2)cc1 [Example 24, (S)-3-(4-(((R)-5-Fluoro-4-(6-((tetrahydro-2H-pyran-4-yl)oxy)pyridin-3-yl)-2,3-dihydro-1H-inden-1-yl)oxy)phenyl)hex-4-ynoic acid]

The next lines start with the molecule.

Compound | Agonistic activity (%, 1 μM)
Cc1cc(OCCCS(C)(=O)=O)cc(C)c1-c1cccc(COc2ccc3c(c2)OC[C@H]3CC(=O)O)c1 [Comparative Example 1, reference compound] | +++ (+++: over 70)
CC#C[C@@H](CC(=O)O)c1ccc(O[C@@H]2CCc3c(-c4ccc(OC5CCS(=O)(=O)CC5)nc4)ccc(F)c32)cc1 [Example 1, (S)-3-(4-(((R)-4-(6-((1,1-Dioxidotetrahydro-2H-thiopyran-4-yl)oxy)pyridin-3-VI)-7-fluoro-2,3-dihydro-1H-inden-1-yl)oxy)phenyl)hex-4-ynoic acid] | + (+: under 40)
CC#C[C@@H](CC(=O)O)c1ccc(O[C@@H]2CCc3c(-c4ccc(OCCN5CCS(=O)(=O)CC5)nc4)ccc(F)c32)cc1 [Example 3, (S)-3-(4-(((R)-4-(6-(2-(1,1-Dioxidothiomorpholino)ethoxy)pyridin-3-yl)-7-fluoro-2,3-dihydro-1H-inden-1-yl)oxy)phenyl)hex-4-ynoic acid] | + (+: under 40)
CC#C[C@@H](CC(=O)O)c1ccc(O[C@@H]2CCc3c(-c4ccc(O[C@@H]5CCOC5)nc4)ccc(F)c32)cc1 [Example 5, (S)-3-(4-(((R)-7-Fluoro-4-(6-(((R)-tetrahydrofuran-3-yl)oxy)pyridin-3-yl)-2,3-dihydro-1H-inden-1-yl)oxy)phenyl)hex-4-ynoic acid] | +++ (+++: over 70)
CC#C[C@@H](CC(=O)O)c1ccc(O[C@@H]2CCc3c(-c4ccc(OC5CCOCC5)nc4)ccc(F)c32)cc1 [Example 6, (S)-3-(4-(((R)-7-Fluoro-4-(6-((tetrahydro-2H-pyran-4-yl)oxy)pyridin-3-yl)-2,3-dihydro-1H-inden-1-yl)oxy)phenyl)hex-4-ynoic acid] | +++ (+++: over 70)
CC#C[C@@H](CC(=O)O)c1ccc(O[C@@H]2CCc3c(-c4ccc(O[C@H]5CCOC5)nc4)ccc(F)c32)cc1 [Example 7, (S)-3-(4-(((R)-7-Fluoro-4-(6-(((S)-tetrahydrofuran-3-yl)oxy)pyridin-3-yl)-2,3-dihydro-1H-inden-1-yl)oxy)phenyl)hex-4-ynoic acid] | +++ (+++: over 70)
